{"source": "patent US9758529B2", "about": "“Fused dihydro-4H-pyrazolo[5,1-C][1,4]oxazinyl compounds and analogs for treating CNS disorders” (Sunovion Pharmaceuticals Inc., priority 2015, dated 2017)", "data": [{"tested_on": "mice", "experiment": "Neuropharmacological Assay (SmartCube)", "format": "in vivo", "conditions": "i.p. 15 min before behavioral test; 3 doses, most efficacious dose(s) presented", "values": [{"smiles": "CCN(C)C[C@H]1OCCn2nc3ccccc3c21.Cl", "note": "[Compound 50, N—(((R)-3,4-dihydro-1H-[1,4]oxazino[4,3-b]indazol-1-yl)methyl)-N-methylethanaminium chloride]", "AD: ADHD (probability of class match)": "++ (5%≦ ++ <25%)", "AG: analgesic (probability of class match)": "+ (LOQ≦ + <5%)", "AX: anxiolytic (probability of class match)": "+++ (25%≦ +++ <50%)", "CE: cognitive enhancer (probability of class match)": "+ (LOQ≦ + <5%)", "DP: anti-depressant (probability of class match)": "++++ (50%≦ ++++)", "HA: hallucinogen (probability of class match)": "++ (5%≦ ++ <25%)", "MS: mood stabilizer (probability of class match)": "+ (LOQ≦ + <5%)", "PS: anti-psychotic (probability of class match)": "+ (LOQ≦ + <5%)", "SD: sedative hypnotic (probability of class match)": "+ (LOQ≦ + <5%)", "UN: uncharacterized CNS activity (probability of class match)": "+ (LOQ≦ + <5%)", "XG: anxiogenic (probability of class match)": "+ (LOQ≦ + <5%)"}, {"smiles": "Cl.c1ccc2c3n(nc2c1)CCO[C@@H]3[C@@H]1COCCN1", "note": "(racemic) [Compound 45, (+/−)—(S)-3-((R)-3,4-dihydro-1H-[1,4]oxazino[4,3-b]indazol-1-yl)morpholin-4-ium chloride]", "AD: ADHD (probability of class match)": "+ (LOQ≦ + <5%)", "AG: analgesic (probability of class match)": "+ (LOQ≦ + <5%)", "AX: anxiolytic (probability of class match)": "+ (LOQ≦ + <5%)", "CE: cognitive enhancer (probability of class match)": "+ (LOQ≦ + <5%)", "DP: anti-depressant (probability of class match)": "+ (LOQ≦ + <5%)", "HA: hallucinogen (probability of class match)": "+ (LOQ≦ + <5%)", "MS: mood stabilizer (probability of class match)": "+ (LOQ≦ + <5%)", "PS: anti-psychotic (probability of class match)": "+ (LOQ≦ + <5%)", "SD: sedative hypnotic (probability of class match)": "+ (LOQ≦ + <5%)", "UN: uncharacterized CNS activity (probability of class match)": "+ (LOQ≦ + <5%)", "XG: anxiogenic (probability of class match)": "+ (LOQ≦ + <5%)"}, {"smiles": "CN(C)CC1OCCn2nc3cc(F)ccc3c21.Cl", "note": "(stereo not drawn) [Compound 11, 1-(8-fluoro-3,4-dihydro-1H-[1,4]oxazino[4,3-b]indazol-1-yl)-N,N-dimethylmethanaminium]", "AD: ADHD (probability of class match)": "+ (LOQ≦ + <5%)", "AG: analgesic (probability of class match)": "+ (LOQ≦ + <5%)", "AX: anxiolytic (probability of class match)": "+ (LOQ≦ + <5%)", "CE: cognitive enhancer (probability of class match)": "+ (LOQ≦ + <5%)", "DP: anti-depressant (probability of class match)": "+++ (25%≦ +++ <50%)", "HA: hallucinogen (probability of class match)": "+ (LOQ≦ + <5%)", "MS: mood stabilizer (probability of class match)": "+ (LOQ≦ + <5%)", "PS: anti-psychotic (probability of class match)": "++ (5%≦ ++ <25%)", "SD: sedative hypnotic (probability of class match)": "++ (5%≦ ++ <25%)", "UN: uncharacterized CNS activity (probability of class match)": "+ (LOQ≦ + <5%)", "XG: anxiogenic (probability of class match)": "+ (LOQ≦ + <5%)"}, {"smiles": "CN1CCO[C@@H]([C@@H]2OCCn3nc4ccccc4c32)C1", "note": "[Compound 25, (2R)-2-((R)-3,4-dihydro-1H-[1,4]oxazino[4,3-b]indazol-1-yl)-4-methylmorpholin-4-ium chloride]", "AD: ADHD (probability of class match)": "++ (5%≦ ++ <25%)", "AG: analgesic (probability of class match)": "++ (5%≦ ++ <25%)", "AX: anxiolytic (probability of class match)": "++ (5%≦ ++ <25%)", "CE: cognitive enhancer (probability of class match)": "+ (LOQ≦ + <5%)", "DP: anti-depressant (probability of class match)": "++ (5%≦ ++ <25%)", "HA: hallucinogen (probability of class match)": "+ (LOQ≦ + <5%)", "MS: mood stabilizer (probability of class match)": "+ (LOQ≦ + <5%)", "PS: anti-psychotic (probability of class match)": "+ (LOQ≦ + <5%)", "SD: sedative hypnotic (probability of class match)": "+ (LOQ≦ + <5%)", "UN: uncharacterized CNS activity (probability of class match)": "+ (LOQ≦ + <5%)", "XG: anxiogenic (probability of class match)": "+ (LOQ≦ + <5%)"}, {"smiles": "CN1CCC2(CC1)OCCn1nc3ccccc3c12.Cl", "note": "[Compound 24, 1′-methyl-3,4-dihydrospiro[[1,4]oxazino[4,3-b]indazole-1,4′-piperidin]-1′-ium chloride]", "AD: ADHD (probability of class match)": "+ (LOQ≦ + <5%)", "AG: analgesic (probability of class match)": "++ (5%≦ ++ <25%)", "AX: anxiolytic (probability of class match)": "++ (5%≦ ++ <25%)", "CE: cognitive enhancer (probability of class match)": "++ (5%≦ ++ <25%)", "DP: anti-depressant (probability of class match)": "++ (5%≦ ++ <25%)", "HA: hallucinogen (probability of class match)": "+ (LOQ≦ + <5%)", "MS: mood stabilizer (probability of class match)": "+ (LOQ≦ + <5%)", "PS: anti-psychotic (probability of class match)": "++ (5%≦ ++ <25%)", "SD: sedative hypnotic (probability of class match)": "+ (LOQ≦ + <5%)", "UN: uncharacterized CNS activity (probability of class match)": "+ (LOQ≦ + <5%)", "XG: anxiogenic (probability of class match)": "+ (LOQ≦ + <5%)"}, {"smiles": "C[C@H](N)[C@H]1OCCn2nc3ccccc3c21", "note": "(relative stereo) [Compound 33, (+/−)-rel-(R)-1-((S)-3,4-dihydro-1H-[1,4]oxazino[4,3-b]indazol-1-yl) ethanaminium chloride]", "AD: ADHD (probability of class match)": "++++ (50%≦ ++++)", "AG: analgesic (probability of class match)": "++ (5%≦ ++ <25%)", "AX: anxiolytic (probability of class match)": "++ (5%≦ ++ <25%)", "CE: cognitive enhancer (probability of class match)": "+ (LOQ≦ + <5%)", "DP: anti-depressant (probability of class match)": "++ (5%≦ ++ <25%)", "HA: hallucinogen (probability of class match)": "++ (5%≦ ++ <25%)", "MS: mood stabilizer (probability of class match)": "+ (LOQ≦ + <5%)", "PS: anti-psychotic (probability of class match)": "+ (LOQ≦ + <5%)", "SD: sedative hypnotic (probability of class match)": "+ (LOQ≦ + <5%)", "UN: uncharacterized CNS activity (probability of class match)": "+++ (25%≦ +++ <50%)", "XG: anxiogenic (probability of class match)": "+ (LOQ≦ + <5%)"}, {"smiles": "CC(C)N(C)CC1OCCn2nc3ccccc3c21.Cl", "note": "(stereo not drawn) [Compound 27, N-((3,4-dihydro-1H-[1,4]oxazino[4,3-b]indazol-1-yl)methyl)-N-methylpropan-2-aminium chloride]", "AD: ADHD (probability of class match)": "+ (LOQ≦ + <5%)", "AG: analgesic (probability of class match)": "++ (5%≦ ++ <25%)", "AX: anxiolytic (probability of class match)": "+ (LOQ≦ + <5%)", "CE: cognitive enhancer (probability of class match)": "+ (LOQ≦ + <5%)", "DP: anti-depressant (probability of class match)": "++++ (50%≦ ++++)", "HA: hallucinogen (probability of class match)": "+ (LOQ≦ + <5%)", "MS: mood stabilizer (probability of class match)": "+ (LOQ≦ + <5%)", "PS: anti-psychotic (probability of class match)": "+ (LOQ≦ + <5%)", "SD: sedative hypnotic (probability of class match)": "+ (LOQ≦ + <5%)", "UN: uncharacterized CNS activity (probability of class match)": "+ (LOQ≦ + <5%)", "XG: anxiogenic (probability of class match)": "+ (LOQ≦ + <5%)"}, {"smiles": "CN[C@@H](C)[C@H]1OCCn2nc3ccccc3c21", "note": "(relative stereo) [Compound 34, (+/−)-rel-(R)-1-((S)-3,4-dihydro-1H-[1,4]oxazino[4,3-b]indazol-1-yl)-N-methylethanaminium chloride]", "AD: ADHD (probability of class match)": "+ (LOQ≦ + <5%)", "AG: analgesic (probability of class match)": "+ (LOQ≦ + <5%)", "AX: anxiolytic (probability of class match)": "++ (5%≦ ++ <25%)", "CE: cognitive enhancer (probability of class match)": "+ (LOQ≦ + <5%)", "DP: anti-depressant (probability of class match)": "+ (LOQ≦ + <5%)", "HA: hallucinogen (probability of class match)": "+ (LOQ≦ + <5%)", "MS: mood stabilizer (probability of class match)": "+ (LOQ≦ + <5%)", "PS: anti-psychotic (probability of class match)": "+ (LOQ≦ + <5%)", "SD: sedative hypnotic (probability of class match)": "+ (LOQ≦ + <5%)", "UN: uncharacterized CNS activity (probability of class match)": "+ (LOQ≦ + <5%)", "XG: anxiogenic (probability of class match)": "+ (LOQ≦ + <5%)"}, {"smiles": "CNCC1OCCn2nc3ccsc3c21.Cl", "note": "(stereo not drawn) [Compound 58, 1-(6,7-dihydro-9H-thieno[3′,2′:3,4]pyrazolo[5,1-c][1,4]oxazin-9-yl)-N-methylmethanaminium chloride]", "AD: ADHD (probability of class match)": "++ (5%≦ ++ <25%)", "AG: analgesic (probability of class match)": "+ (LOQ≦ + <5%)", "AX: anxiolytic (probability of class match)": "++ (5%≦ ++ <25%)", "CE: cognitive enhancer (probability of class match)": "+ (LOQ≦ + <5%)", "DP: anti-depressant (probability of class match)": "++++ (50%≦ ++++)", "HA: hallucinogen (probability of class match)": "++ (5%≦ ++ <25%)", "MS: mood stabilizer (probability of class match)": "+ (LOQ≦ + <5%)", "PS: anti-psychotic (probability of class match)": "+ (LOQ≦ + <5%)", "SD: sedative hypnotic (probability of class match)": "++ (5%≦ ++ <25%)", "UN: uncharacterized CNS activity (probability of class match)": "+ (LOQ≦ + <5%)", "XG: anxiogenic (probability of class match)": "+ (LOQ≦ + <5%)"}, {"smiles": "Cl.N[C@H](CC1CCC1)C1OCCn2nc3ccccc3c21", "note": "(stereo partly drawn) [Compound 41, (1R)-2-cyclobutyl-1-(3,4-dihydro-1H-[1,4]oxazino[4,3-b]indazol-1-yl)ethan-1-aminium]", "AD: ADHD (probability of class match)": "+ (LOQ≦ + <5%)", "AG: analgesic (probability of class match)": "+ (LOQ≦ + <5%)", "AX: anxiolytic (probability of class match)": "+ (LOQ≦ + <5%)", "CE: cognitive enhancer (probability of class match)": "+ (LOQ≦ + <5%)", "DP: anti-depressant (probability of class match)": "+ (LOQ≦ + <5%)", "HA: hallucinogen (probability of class match)": "+ (LOQ≦ + <5%)", "MS: mood stabilizer (probability of class match)": "+ (LOQ≦ + <5%)", "PS: anti-psychotic (probability of class match)": "+ (LOQ≦ + <5%)", "SD: sedative hypnotic (probability of class match)": "+ (LOQ≦ + <5%)", "UN: uncharacterized CNS activity (probability of class match)": "+ (LOQ≦ + <5%)", "XG: anxiogenic (probability of class match)": "+ (LOQ≦ + <5%)"}, {"smiles": "C[C@H]([C@H]1OCCn2nc3ccccc3c21)N(C)C.Cl", "note": "(relative stereo) [Compound 32, (+/−)-rel-(R)-1-((R)-3,4-dihydro-1H-[1,4]oxazino[4,3-b]indazol-1-yl)-N,N-dimethylethanaminium chloride]", "AD: ADHD (probability of class match)": "+ (LOQ≦ + <5%)", "AG: analgesic (probability of class match)": "+ (LOQ≦ + <5%)", "AX: anxiolytic (probability of class match)": "++ (5%≦ ++ <25%)", "CE: cognitive enhancer (probability of class match)": "++ (5%≦ ++ <25%)", "DP: anti-depressant (probability of class match)": "++ (5%≦ ++ <25%)", "HA: hallucinogen (probability of class match)": "+ (LOQ≦ + <5%)", "MS: mood stabilizer (probability of class match)": "+ (LOQ≦ + <5%)", "PS: anti-psychotic (probability of class match)": "+++ (25%≦ +++ <50%)", "SD: sedative hypnotic (probability of class match)": "+ (LOQ≦ + <5%)", "UN: uncharacterized CNS activity (probability of class match)": "++ (5%≦ ++ <25%)", "XG: anxiogenic (probability of class match)": "+ (LOQ≦ + <5%)"}, {"smiles": "NCC1OCCn2nc3ccccc3c21", "note": "(stereo not drawn) [Compound 15, (3,4-dihydro-1H-[1,4]oxazino[4,3-b]indazol-1-yl)methanamine]", "AD: ADHD (probability of class match)": "++++ (50%≦ ++++)", "AG: analgesic (probability of class match)": "++ (5%≦ ++ <25%)", "AX: anxiolytic (probability of class match)": "+ (LOQ≦ + <5%)", "CE: cognitive enhancer (probability of class match)": "+ (LOQ≦ + <5%)", "DP: anti-depressant (probability of class match)": "++ (5%≦ ++ <25%)", "HA: hallucinogen (probability of class match)": "+ (LOQ≦ + <5%)", "MS: mood stabilizer (probability of class match)": "+ (LOQ≦ + <5%)", "PS: anti-psychotic (probability of class match)": "+ (LOQ≦ + <5%)", "SD: sedative hypnotic (probability of class match)": "+ (LOQ≦ + <5%)", "UN: uncharacterized CNS activity (probability of class match)": "+ (LOQ≦ + <5%)", "XG: anxiogenic (probability of class match)": "+ (LOQ≦ + <5%)"}]}]}
